Patent EP0522596A1, “Method and means for inducing constriction of the pupil in the eye” (Kabi Pharmacia AB, priority 1989, dated 1993)
“Also recorded” adds a separate entry of the source. Ends that are not written are not given here.

Experiments:
[1] = tested on: receptor present on the sphincter muscle; assay type: in vivo; conditions: nerve blockade with tetrodotoxin; pretreatment with indomethacin
pupil [2] = experiment: Antagonism of the CCK-8 miosis dose-response in the monkey eye in vivo; set-up: species or system monkeys; conditions: 0.75 µg of Lorglumide injected into the anterior chamber
Method: Example 5: Dose-response determination of CCK-8 was carried out on one eye of atropine treated, pentobarbital anesthesized monkeys in accordance with the description in Example 1. Thereafter 0.75µg of Lorglumide in 15µl of isotonic saline was injected into the anterior chamber of the other eye. The CCK-8 dose-response relationship was then determined in the same way as in the case of the first eye.

pupil [3] = experiment: Capsaicin-induced miosis in monkeys with and without Lorglumide pretreatment; assay type: in vivo, Macaca fascicularis
Method: Example 7: Monkeys (Macaca fascicularis) were anesthesized, pretreated with atropine and cannulated as described in Example 1. Then 10 µl of a 1% solution of Capsaicin was injected into the anterior chamber; the diameter of the pupil was measured 15 minutes later. The decrease in pupil size obtained with this dose varied from 0 to 1.5 mm.

[4] = tested on: sphincter muscle of the iris; conditions: injected into the anterior chamber; Bill et al., 1979; cited from earlier work
pupil [5] = conditions: primates; Mandahl et al., 1980; cited from earlier work

Compound: COc1ccc2c(c1)c(CC(=O)O)c(C)n2C(=O)c1ccc(Cl)cc1 [indomethacin]
- effect of pretreatment on the miosis response to CCK [1]: do not cause a decrease in the miosis response

Compound: CCCCCN(CCCCC)C(=O)C(CCC(=O)O)NC(=O)c1ccc(Cl)c(Cl)c1 (racemic) [Lorglumide, D,L-4-(3,4-dichlorobenzoylamino)-5-(dipentylamino)-5-oxo-pentanoic acid]
- shift of the CCK-8 dose-response curve to the right (pupil [2]): more than one order of magnitude
- effect on the pupil response to Capsaicin (pupil [3]; pretreatment with 7.5 µg Lorglumide in 15 µl, capsaicin-sensitive animals): decreased the response to Capsaicin; also recorded: most of the effect on the pupil was eliminated

Compound: substance P (RPKPQQFFGLM; ends and bridges not checked; UniProt P20366 58-68, looked up) [neuropeptide released in the eye on irritation; synthetically produced]
- response of the sphincter muscle of the iris [4]: substantial contractive response
- pupillary response to substance P (pupil [5]): totally absent

Compound: COc1cc(CNC(=O)CCCCC=CC(C)C)ccc1O [Capsaicin, 8-methyl-N-vanillyl-6-nonenamide]
- miotic response in monkeys (pupil [3]; cynomolgus monkey, in vivo): less consistent and less pronounced as compared to the response in rabbits
